Read-outs that look alike come from different tables or passages of the source.
Assays:
[1] = system: L. mexicana MHOM/MX/2017/UABJO17FCQEPS promastigotes; assay: In vitro leishmanicidal evaluation on promastigotes (MTT), strain FCQEPS; type: cell-based; conditions: 48 h, read-out: Leishmania mexicana IC50 (µM ± SD) FCQEPS
Protocol: (§1) The metabolic activity of the cells was determined using the method of 3-(4,5-Dimethylthiazol-2-yl)-2,5-diphenyltetrazolium bromide (MTT). The half-maximum inhibitory concentration (IC50) was determined using probit analysis. Three independent assays were each performed in triplicate. Biostat software was used to analyze the data for statistically significant data (p < 0.05).

[2] = system: L. mexicana MNYC/BZ/62/M379 promastigotes; assay: In vitro leishmanicidal evaluation on promastigotes (MTT), strain M379; type: cell-based; conditions: read-out: Leishmania mexicana IC50 (µM ± SD) M379
Protocol: as §1

[3] = Cytotoxicity in murine macrophages (MTT); type: cell-based, mouse; conditions: mouse, 37 °C, read-out: J774.2 Cell Line CC50 (µM ± SD)
Protocol: (§2) This assay was performed on mouse macrophages from the J774.2 cell line that were recloned from the original ascites and solid tumor J774.1 (according to the fabricant). The cells were cultured in RPMI medium supplemented with 10% SFB, […] penicillin, 100 ug/mL streptomycin, and glutamine (2 mM) at 37 °C and in a 5% CO2 atmosphere. The medium was changed at intervals of every 2 to 3 days. […] Cells in the presence of the maximum concentration of DMSO (0.2%) were included as a negative control. The metabolic activity of the cells was determined using the MTT method. The percentage of cell viability was calculated, and the mean cytotoxic concentration (CC50) was determined using probit analysis. Three independent assays were each performed in triplicate. The selectivity index (SI) was calculated for the promastigotes of L. mexicana and the autochthonous isolate (CC50/IC50).

J774.2 cell line = assay: Cytotoxicity in murine macrophages (MTT); type: cell-based, mouse; conditions: 48 h, 37 °C, read-out: J774.2 Cell Line CC50 (µM ± SD)
Protocol: as §2

[4] = system: promastigote of both L. mexicana strains; assay: In vitro leishmanicidal activity, promastigote of both L. mexicana strains (abstract); type: cell-based, Leishmania mexicana; conditions: rounded value of the abstract
Protocol: Promastigotes from the reference strain of L. mexicana (MNYC/BZ/62/M379) and the autochthonous isolate of L. mexicana (MHOM/MX/2017/UABJO17FCQEPS) were used in the in vitro studies. Parasites were preserved in RPMI 1640 supplemented with 10% fetal bovine serum (FBS), 100 U/mL penicillin, 100 ug/mL streptomycin, and glutamine (2 mM). The parasites, in their logarithmic growth phase (5 × 10^5 parasites/mL), were incubated in 96-well plates with the compounds under different concentrations (0.78–100 µM) dissolved in dimethyl sulfoxide (DMSO) in a final volume of 200 µL for 48 h at 26 °C. Parasites in the presence of DMSO (0.2%) were included as a negative control. […] The metabolic activity of the cells was determined using the method of 3-(4,5-Dimethylthiazol-2-yl)-2,5-diphenyltetrazolium bromide (MTT). The half-maximum inhibitory concentration (IC50) was determined using probit analysis. Three independent assays were each performed in triplicate. Biostat software was used to analyze the data for statistically significant data (p < 0.05).

[5] = Leishmania mexicana, promastigotes, strain MHOM/MX/2017/UABJO17FCQEPS, 26 °C, MTT
[6] = Leishmania mexicana, promastigotes, strain MNYC/BZ/62/M379, 48 h, 26 °C, MTT

C[C@H]1[C@H](C)CC[C@]2(C(=O)O)CC[C@]3(C)C(=CC[C@@H]4[C@@]5(C)CC[C@H](O)C(C)(C)[C@@H]5CC[C@]43C)[C@H]12 [Compound B-3, ursolic acid]
IC50 [1, 5]: 87.2 ± 7.05 µM
IC50 [2, 6]: > 200 µM
CC50 at 48 h ([3]; J774.2 macrophage cells): 49.2 ± 5.53 µM

CC1(C)[C@@H](O)CC[C@]2(C)[C@H]3C(=O)C=C4[C@@H]5C[C@@](C)(C(=O)O)CC[C@]5(C)CC[C@@]4(C)[C@]3(C)CC[C@@H]12 [Compound S-3, glycyrrhetinic acid]
IC50 [1, 5]: 145 ± 12.1 µM
IC50 [2, 6]: 44.2 ± 5.03 µM
CC50 (J774.2 cell line): > 100 µM

CNC(=O)c1cc(Oc2ccc(NC(=O)Nc3ccc(Cl)c(C(F)(F)F)c3)cc2)ccn1 [Compound S-7, sorafenib]
IC50 ([1]; Leishmania mexicana): 166 ± 18.1 µM
IC50 ([2]; Leishmania mexicana, 48 h): 24.9 ± 3.08 µM
CC50 at 48 h [3]: 64.9 ± 9.58 µM

CCc1cc2c(cc1CC)CC(NC[C@H](O)c1ccc(O)c3[nH]c(=O)ccc13)C2 [Compound S-8, indacaterol]
IC50 ([4]; Leishmania mexicana): 55 µM
IC50 [1, 5]: 56 ± 5.87 µM
IC50 [2, 6]: 55.1 ± 2.34 µM
CC50 (J774.2 cell line): > 100 µM

Glucantime
IC50 [4]: 133 µM
IC50 ([1]; promastigotes, strain MHOM/MX/2017/UABJO17FCQEPS, 26 °C, MTT): 125 ± 11.6 µM
IC50 ([2]; promastigotes, strain MNYC/BZ/62/M379, 48 h, 26 °C, MTT): 134 ± 2.79 µM

— paper PMC10458937, “Triose Phosphate Isomerase Structure-Based Virtual Screening and In Vitro Biological Activity of Natural Products as Leishmania mexicana Inhibitors” (Pharmaceutics, 2023)
